Reference: PubChem BioAssay (NCI)
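Assay format: 96-well plates, 48-hour exposure. Definition used: TGI = concentration required for complete inhibition of growth.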

Experiments:
Experiment in all cases: DTP human tumour cell line panel, 48 h
A549 NSCLC = tested on: A549 NSCLC
ACHN renal = tested on: ACHN renal
CCRF-CEM leukemia = tested on: CCRF-CEM leukemia
DLD-1 colon = tested on: DLD-1 colon
EKVX NSCLC = tested on: EKVX NSCLC
HCC-2998 colon = tested on: HCC-2998 colon
HCT-15 colon = tested on: HCT-15 colon
HL-60(TB) leukemia = tested on: HL-60(TB) leukemia
HOP-62 NSCLC = tested on: HOP-62 NSCLC
HOP-92 NSCLC = tested on: HOP-92 NSCLC
HT29 colon = tested on: HT29 colon
IGROV1 ovarian = tested on: IGROV1 ovarian
K-562 leukemia = tested on: K-562 leukemia
KM12 colon = tested on: KM12 colon
KM20L2 colon = tested on: KM20L2 colon
LOX IMVI melanoma = tested on: LOX IMVI melanoma
LXFL 529 NSCLC = tested on: LXFL 529 NSCLC
M14 melanoma = tested on: M14 melanoma
M19-MEL melanoma = tested on: M19-MEL melanoma
MALME-3M melanoma = tested on: MALME-3M melanoma
MOLT-4 leukemia = tested on: MOLT-4 leukemia
NCI-H23 lung = tested on: NCI-H23 lung
NCI-H460 lung = tested on: NCI-H460 lung
NCI-H522 lung = tested on: NCI-H522 lung
OVCAR-3 ovarian = tested on: OVCAR-3 ovarian
OVCAR-4 ovarian = tested on: OVCAR-4 ovarian
OVCAR-5 ovarian = tested on: OVCAR-5 ovarian
OVCAR-8 ovarian = tested on: OVCAR-8 ovarian
RXF 393 renal = tested on: RXF 393 renal
SF-295 CNS = tested on: SF-295 CNS
SF-539 CNS = tested on: SF-539 CNS
SK-MEL-2 melanoma = tested on: SK-MEL-2 melanoma
SK-MEL-28 melanoma = tested on: SK-MEL-28 melanoma
SK-MEL-5 melanoma = tested on: SK-MEL-5 melanoma
SK-OV-3 ovarian = tested on: SK-OV-3 ovarian
SN12C renal = tested on: SN12C renal
SNB-75 CNS = tested on: SNB-75 CNS
SNB-78 CNS = tested on: SNB-78 CNS
SR leukemia = tested on: SR leukemia
SW-620 colon = tested on: SW-620 colon
TK-10 renal = tested on: TK-10 renal
U251 CNS = tested on: U251 CNS
UACC-257 melanoma = tested on: UACC-257 melanoma
UACC-62 melanoma = tested on: UACC-62 melanoma
UO-31 renal = tested on: UO-31 renal
XF 498 CNS = tested on: XF 498 CNS
786-0 renal = tested on: 786-0 renal
A498 renal = tested on: A498 renal
CAKI-1 renal = tested on: CAKI-1 renal
COLO 205 colon = tested on: COLO 205 colon
DMS 114 small cell lung = tested on: DMS 114 small cell lung
DMS 273 small cell lung = tested on: DMS 273 small cell lung
HCT-116 colon = tested on: HCT-116 colon
RPMI-8226 leukemia = tested on: RPMI-8226 leukemia
SF-268 CNS = tested on: SF-268 CNS
SNB-19 CNS = tested on: SNB-19 CNS

Measured: TGI

CC1OC=CC(=O)C1O (configuration not stated)
not listed: 786-0 renal | A498 renal | CAKI-1 renal | COLO 205 colon | DMS 114 small cell lung | DMS 273 small cell lung | HCT-116 colon | RPMI-8226 leukemia | SF-268 CNS | SNB-19 CNS
> 100 µM: all other assays above

CC(=O)OCC(OC(C)=O)C(OC(C)=O)C(OC(C)=O)C(=O)CNn1c(-c2ccccc2Cl)nc2ccc(Br)cc2c1=O (configuration not stated)
90.1 µM: HL-60(TB) leukemia
66.2 µM: XF 498 CNS
not listed: DLD-1 colon | HCC-2998 colon | HOP-92 NSCLC | IGROV1 ovarian | TK-10 renal
> 100 µM: all other assays above
